From patent US7851474B2, “Dipiperazinyl ketones and related analogues” (Neurogen Corporation, priority 2005, dated 2010) come the findings set out here.

Usually Ki stands for the equilibrium dissociation constant of an inhibitor or competing ligand from its target.

The target of one experiment is T1, chimeric human H3 receptor (Homo sapiens, UniProt Q9Y5N1, E19D).
T1 construct: made in house; host or cells: Sf9 insect cells (baculovirus infection); P2 membrane preparation
T1 sequence (Q9Y5N1 with tags, fused parts or gaps E19D): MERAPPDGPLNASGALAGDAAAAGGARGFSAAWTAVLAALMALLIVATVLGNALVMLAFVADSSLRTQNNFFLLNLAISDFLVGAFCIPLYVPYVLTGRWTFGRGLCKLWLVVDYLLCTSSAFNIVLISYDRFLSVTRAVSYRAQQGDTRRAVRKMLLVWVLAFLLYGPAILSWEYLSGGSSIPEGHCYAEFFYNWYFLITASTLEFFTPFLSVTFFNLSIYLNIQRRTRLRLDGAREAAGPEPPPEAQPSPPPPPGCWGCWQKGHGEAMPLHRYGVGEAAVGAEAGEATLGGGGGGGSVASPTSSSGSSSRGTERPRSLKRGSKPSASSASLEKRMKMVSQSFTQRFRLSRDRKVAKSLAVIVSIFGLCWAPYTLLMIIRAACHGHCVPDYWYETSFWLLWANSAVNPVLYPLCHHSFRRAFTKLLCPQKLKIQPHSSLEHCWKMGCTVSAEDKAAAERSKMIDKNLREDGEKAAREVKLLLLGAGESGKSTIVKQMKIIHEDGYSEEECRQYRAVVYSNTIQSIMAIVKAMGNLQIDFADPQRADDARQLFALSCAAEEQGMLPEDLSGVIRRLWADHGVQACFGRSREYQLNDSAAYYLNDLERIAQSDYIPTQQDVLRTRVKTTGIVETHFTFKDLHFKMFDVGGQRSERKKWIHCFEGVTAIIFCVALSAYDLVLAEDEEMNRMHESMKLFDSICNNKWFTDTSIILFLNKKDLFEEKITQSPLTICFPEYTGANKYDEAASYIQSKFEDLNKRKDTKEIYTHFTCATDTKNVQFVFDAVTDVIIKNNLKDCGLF
In words: Chimeric human H3 receptor GTP binding assay (agonist-stimulated GTP-gamma35S binding, Example 7).
Details: not given
Type of experiment: biochemical. In outline: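 Sf9 membranes co-expressing the chimeric receptor and heterotrimeric G-protein subunits, 35 μg protein per tube, in pH 7.4 Tris buffer with 10 μM GDP. Test compounds at 10^−10 to 10^−6 M with 1 μM histamine, 60 min at room temperature. Filter-bound GTP-gamma^35S read by scintillation; IC50 from non-linear regression of dose-response curves.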
On to `CCC(C)N1CCN(C(=O)CN2CCN(c3ccccc3F)CC2)CC1` (centres unmarked) [Compound 867, 1-sec-butyl-4-{[4-(2-fluorophenyl)piperazin-1-yl]acetyl}piperazine], for which the Ki is less than 1 µM.
`CCC(C)N1CCN(C(=O)CN2CCN(c3ccccc3C)CC2)CC1` (centres unmarked) [Compound 868, 1-sec-butyl-4-{[4-(2-methylphenyl)piperazin-1-yl]acetyl}piperazine]: the Ki is less than 1 µM.

The same experiment, now with this note: Table II "Ki", symbol "*": Ki in the assay of Example 7; read-out: Ki.
As to `CCC(C)N1CCN(C(=O)CN2CCN(c3cccc(C(F)(F)F)c3)CC2)CC1` (centres unmarked) [Compound 853, 1-sec-butyl-4-({4-[3-(trifluoromethyl)phenyl]piperazin-1-yl}acetyl)piperazine], the Ki was less than 1 µM.
On the same count and under the same terms, as for `CCC(C)N1CCN(C(=O)CN2CCN(c3ccc(C(F)(F)F)cc3)CC2)CC1` (centres unmarked) [Compound 854, 1-sec-butyl-4-({4-[4-(trifluoromethyl)phenyl]piperazin-1-yl}acetyl)piperazine], the figure is less than 1 µM; as for `CCC(C)N1CCN(C(=O)CN2CCN(c3ccc(Cl)c(C(F)(F)F)c3)CC2)CC1` (centres unmarked) [Compound 855, 1-sec-butyl-4-({4-[4-chloro-3-(trifluoromethyl)phenyl]piperazin-1-yl}acetyl)piperazine], less than 1 µM.
Still for that read-out and setting: the same measure for `CCC(C)N1CCN(C(=O)CN2CCN(c3ccc(F)c(C(F)(F)F)c3)CC2)CC1` (centres unmarked) [Compound 856, 1-sec-butyl-4-({4-[4-fluoro-3-(trifluoromethyl)phenyl]piperazin-1-yl}acetyl)piperazine]: less than 1 µM; for `CCC(C)N1CCN(C(=O)CN2CCN(c3ccccc3)CC2)CC1` (centres unmarked) [Compound 857, 1-sec-butyl-4-[(4-phenylpiperazin-1-yl)acetyl]piperazine]: less than 1 µM; for `CCC(C)N1CCN(C(=O)CN2CCC(N3CCCC3)CC2)CC1` (centres unmarked) [Compound 858, 1-sec-butyl-4-[(4-pyrrolidin-1-ylpiperidin-1-yl)acetyl]piperazine]: less than 1 µM.
On to `CCC(C)N1CCN(C(=O)CN2CCN(c3cccc(Cl)c3Cl)CC2)CC1` (centres unmarked) [Compound 859, 1-sec-butyl-4-{[4-(2,3-dichlorophenyl)piperazin-1-yl]acetyl}piperazine], for which the Ki is less than 1 µM.
With `CCC(C)N1CCN(C(=O)CN2CCN(c3cccc(C)c3C)CC2)CC1` (centres unmarked) [Compound 860, 1-sec-butyl-4-{[4-(2,3-dimethylphenyl)piperazin-1-yl]acetyl}piperazine], the Ki was less than 1 µM.
Take `CCC(C)N1CCN(C(=O)CN2CCN(c3ccc(F)cc3F)CC2)CC1` (centres unmarked) [Compound 861, 1-sec-butyl-4-{[4-(2,4-difluorophenyl)piperazin-1-yl]acetyl}piperazine]: the Ki is less than 1 µM.
The same measure, in the same setting: the same measure for `CCC(C)N1CCN(C(=O)CN2CCN(c3ccc(OC)cc3OC)CC2)CC1` (centres unmarked) [Compound 862, 1-sec-butyl-4-{[4-(2,4-dimethoxyphenyl)piperazin-1-yl]acetyl}piperazine]: less than 1 µM.
As for `CCC(C)N1CCN(C(=O)CN2CCN(c3ccc(C)cc3C)CC2)CC1` (centres unmarked) [Compound 863], the Ki was less than 1 µM.
`CCC(C)N1CCN(C(=O)CN2CCN(c3cc(C)ccc3C)CC2)CC1` (centres unmarked) [Compound 864, 1-sec-butyl-4-{[4-(2,5-dimethylphenyl)piperazin-1-yl]acetyl}piperazine]: the inhibition constant (Ki) was less than 1 µM.
Same read-out and setting: as for `CCC(C)N1CCN(C(=O)CN2CCN(c3c(C)cccc3C)CC2)CC1` (centres unmarked) [Compound 865, 1-sec-butyl-4-{[4-(2,6-dimethylphenyl)piperazin-1-yl]acetyl}piperazine], the figure is less than 1 µM.
In the case of `CCC(C)N1CCN(C(=O)CN2CCN(c3ccccc3Cl)CC2)CC1` (centres unmarked) [Compound 866, 1-sec-butyl-4-{[4-(2-chlorophenyl)piperazin-1-yl]acetyl}piperazine], the Ki was less than 1 µM.
The same measure, in the same setting: as for `CCC(C)N1CCN(C(=O)CN2CCN(c3ccc(Cl)c(Cl)c3)CC2)CC1` (centres unmarked) [Compound 869, 1-sec-butyl-4-{[4-(3,4-dichlorophenyl)piperazin-1-yl]acetyl}piperazine], the figure is less than 1 µM.
